Assay results: PMC6199744, “Development of Chemical Proteomics for the Folateome and Analysis of the Kinetoplastid Folateome” (ACS Infectious Diseases, 2018)
Read-outs that look alike come from different tables or passages of the source.

How the values were obtained:
Assay type in all cases: binding
[1] = target: T1, HeLa cell extract proteins (Homo sapiens, UniProt O75153)
T1 construct: endogenous in cells; host or cells: HeLa cell extract
T1 sequence (O75153 1-1309): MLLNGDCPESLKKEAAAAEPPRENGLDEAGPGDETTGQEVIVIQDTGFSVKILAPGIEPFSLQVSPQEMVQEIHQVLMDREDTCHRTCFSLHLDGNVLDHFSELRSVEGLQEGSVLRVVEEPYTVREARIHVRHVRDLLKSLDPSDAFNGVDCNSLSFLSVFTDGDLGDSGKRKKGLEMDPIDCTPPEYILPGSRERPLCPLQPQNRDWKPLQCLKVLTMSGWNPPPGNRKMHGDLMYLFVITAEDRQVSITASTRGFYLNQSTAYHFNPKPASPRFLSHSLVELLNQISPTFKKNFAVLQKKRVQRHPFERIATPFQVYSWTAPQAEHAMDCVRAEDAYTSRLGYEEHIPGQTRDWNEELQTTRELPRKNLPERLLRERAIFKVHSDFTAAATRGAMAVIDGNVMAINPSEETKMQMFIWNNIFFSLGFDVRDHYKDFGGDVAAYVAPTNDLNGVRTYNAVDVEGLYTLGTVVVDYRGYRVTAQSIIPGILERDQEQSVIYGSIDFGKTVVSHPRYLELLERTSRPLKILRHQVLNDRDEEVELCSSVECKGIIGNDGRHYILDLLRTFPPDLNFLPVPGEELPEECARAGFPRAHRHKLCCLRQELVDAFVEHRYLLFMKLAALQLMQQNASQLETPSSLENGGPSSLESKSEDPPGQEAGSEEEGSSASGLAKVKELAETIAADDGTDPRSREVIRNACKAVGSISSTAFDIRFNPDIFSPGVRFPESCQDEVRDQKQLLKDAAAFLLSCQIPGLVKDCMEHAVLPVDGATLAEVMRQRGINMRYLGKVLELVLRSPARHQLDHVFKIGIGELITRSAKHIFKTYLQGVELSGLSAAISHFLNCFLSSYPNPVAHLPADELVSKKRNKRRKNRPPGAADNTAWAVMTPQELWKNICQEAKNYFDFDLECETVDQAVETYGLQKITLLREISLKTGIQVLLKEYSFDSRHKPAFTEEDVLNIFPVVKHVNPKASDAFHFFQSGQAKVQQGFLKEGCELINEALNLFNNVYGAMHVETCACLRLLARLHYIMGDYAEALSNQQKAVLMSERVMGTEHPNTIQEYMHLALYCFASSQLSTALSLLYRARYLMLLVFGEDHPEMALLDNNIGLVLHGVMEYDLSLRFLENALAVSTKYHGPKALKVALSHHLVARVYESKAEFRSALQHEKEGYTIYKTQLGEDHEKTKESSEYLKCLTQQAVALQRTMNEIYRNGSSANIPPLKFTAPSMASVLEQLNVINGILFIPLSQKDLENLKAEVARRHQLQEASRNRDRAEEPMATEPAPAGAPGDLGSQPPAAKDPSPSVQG

[2] = target: T2, HeLa cell extract proteins (Homo sapiens, UniProt P00441)
T2 construct: endogenous in cells; host or cells: HeLa cell extract

[3] = target: T3, HeLa cell extract proteins (Homo sapiens, UniProt P07737)
T3 construct: endogenous in cells; host or cells: HeLa cell extract

[4] = target: T4, HeLa cell extract proteins (Homo sapiens, UniProt P11142)
T4 construct: endogenous in cells; host or cells: HeLa cell extract

[5] = target: T5, HeLa cell extract proteins (Homo sapiens, UniProt P16278)
T5 construct: endogenous in cells; host or cells: HeLa cell extract
T5 sequence (P16278 29-677): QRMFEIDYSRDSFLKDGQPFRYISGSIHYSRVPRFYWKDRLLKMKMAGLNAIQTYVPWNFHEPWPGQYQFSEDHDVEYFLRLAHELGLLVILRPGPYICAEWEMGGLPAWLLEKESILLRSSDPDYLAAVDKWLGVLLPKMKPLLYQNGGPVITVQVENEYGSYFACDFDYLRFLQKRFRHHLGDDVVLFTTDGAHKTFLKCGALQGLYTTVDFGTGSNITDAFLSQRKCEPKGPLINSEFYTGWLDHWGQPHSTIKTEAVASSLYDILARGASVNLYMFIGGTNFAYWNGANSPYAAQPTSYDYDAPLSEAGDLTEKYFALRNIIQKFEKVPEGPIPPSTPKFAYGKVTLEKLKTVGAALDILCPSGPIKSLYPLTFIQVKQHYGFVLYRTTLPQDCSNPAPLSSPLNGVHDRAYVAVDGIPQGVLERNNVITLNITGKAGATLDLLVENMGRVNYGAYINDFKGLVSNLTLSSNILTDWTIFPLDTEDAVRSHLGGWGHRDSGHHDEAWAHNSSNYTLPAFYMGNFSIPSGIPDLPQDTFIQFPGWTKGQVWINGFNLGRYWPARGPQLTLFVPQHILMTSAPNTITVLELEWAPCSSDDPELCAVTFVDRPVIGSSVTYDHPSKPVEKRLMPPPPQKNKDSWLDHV

[6] = target: T6, HeLa cell extract proteins (Homo sapiens, UniProt Q15120)
T6 construct: endogenous in cells; host or cells: HeLa cell extract

[7] = target: T7, HeLa cell extract proteins (Homo sapiens, UniProt Q9H000)
T7 construct: endogenous in cells; host or cells: HeLa cell extract
T7 sequence (Q9H000 1-416): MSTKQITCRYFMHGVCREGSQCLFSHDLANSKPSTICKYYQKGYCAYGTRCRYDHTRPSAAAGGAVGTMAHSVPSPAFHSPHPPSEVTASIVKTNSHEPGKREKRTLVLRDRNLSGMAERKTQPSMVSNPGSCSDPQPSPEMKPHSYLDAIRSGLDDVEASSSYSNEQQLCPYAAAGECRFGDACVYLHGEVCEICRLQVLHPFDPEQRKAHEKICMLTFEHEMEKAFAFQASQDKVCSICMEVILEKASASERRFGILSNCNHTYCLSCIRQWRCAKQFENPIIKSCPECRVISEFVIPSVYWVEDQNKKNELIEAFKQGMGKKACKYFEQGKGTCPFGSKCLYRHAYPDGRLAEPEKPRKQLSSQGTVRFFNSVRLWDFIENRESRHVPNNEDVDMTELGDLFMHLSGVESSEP

[8] = target: T8, HeLa cell extract proteins (Homo sapiens, UniProt Q9Y233)
T8 construct: endogenous in cells; host or cells: HeLa cell extract

[9] = HeLa, protein MKRN2 (MAKORIN-2)
[10] = HeLa, protein PFN1 (PROFILIN-1.)

T4 sequence (P11142 whole entry): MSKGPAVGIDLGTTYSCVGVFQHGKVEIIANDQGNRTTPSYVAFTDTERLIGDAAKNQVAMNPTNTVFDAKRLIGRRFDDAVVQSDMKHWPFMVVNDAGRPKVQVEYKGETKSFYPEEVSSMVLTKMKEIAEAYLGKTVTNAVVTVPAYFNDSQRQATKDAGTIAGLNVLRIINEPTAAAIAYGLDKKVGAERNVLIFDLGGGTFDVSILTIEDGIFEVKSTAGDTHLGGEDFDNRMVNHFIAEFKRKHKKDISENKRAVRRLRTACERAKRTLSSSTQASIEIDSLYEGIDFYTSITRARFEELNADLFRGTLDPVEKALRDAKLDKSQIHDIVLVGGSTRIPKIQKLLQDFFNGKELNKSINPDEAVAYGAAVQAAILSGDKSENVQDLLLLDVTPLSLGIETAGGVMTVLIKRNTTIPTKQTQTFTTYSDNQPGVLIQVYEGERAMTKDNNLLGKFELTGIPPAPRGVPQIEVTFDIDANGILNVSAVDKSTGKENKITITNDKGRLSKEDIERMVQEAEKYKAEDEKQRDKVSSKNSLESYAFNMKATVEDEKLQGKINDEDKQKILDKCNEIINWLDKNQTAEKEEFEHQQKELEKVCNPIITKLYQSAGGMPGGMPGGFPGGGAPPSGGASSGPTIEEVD
T6 sequence (Q15120 whole entry): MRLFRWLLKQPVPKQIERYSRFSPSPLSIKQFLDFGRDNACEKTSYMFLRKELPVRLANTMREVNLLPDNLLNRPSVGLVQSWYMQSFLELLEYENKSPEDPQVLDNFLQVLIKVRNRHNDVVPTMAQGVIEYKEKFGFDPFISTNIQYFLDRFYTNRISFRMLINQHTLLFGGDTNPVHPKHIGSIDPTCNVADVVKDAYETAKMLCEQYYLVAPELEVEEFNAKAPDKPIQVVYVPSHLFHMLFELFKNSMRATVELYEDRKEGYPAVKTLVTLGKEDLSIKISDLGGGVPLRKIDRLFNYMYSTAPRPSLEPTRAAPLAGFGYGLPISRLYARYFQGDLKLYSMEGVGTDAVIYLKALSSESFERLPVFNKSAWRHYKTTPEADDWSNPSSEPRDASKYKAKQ
T2 sequence (P00441 whole entry): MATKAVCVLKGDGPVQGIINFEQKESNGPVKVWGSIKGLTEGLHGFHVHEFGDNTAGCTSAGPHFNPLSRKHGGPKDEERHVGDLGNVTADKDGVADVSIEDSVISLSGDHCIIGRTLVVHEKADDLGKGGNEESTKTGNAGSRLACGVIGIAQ
T8 sequence (Q9Y233 whole entry): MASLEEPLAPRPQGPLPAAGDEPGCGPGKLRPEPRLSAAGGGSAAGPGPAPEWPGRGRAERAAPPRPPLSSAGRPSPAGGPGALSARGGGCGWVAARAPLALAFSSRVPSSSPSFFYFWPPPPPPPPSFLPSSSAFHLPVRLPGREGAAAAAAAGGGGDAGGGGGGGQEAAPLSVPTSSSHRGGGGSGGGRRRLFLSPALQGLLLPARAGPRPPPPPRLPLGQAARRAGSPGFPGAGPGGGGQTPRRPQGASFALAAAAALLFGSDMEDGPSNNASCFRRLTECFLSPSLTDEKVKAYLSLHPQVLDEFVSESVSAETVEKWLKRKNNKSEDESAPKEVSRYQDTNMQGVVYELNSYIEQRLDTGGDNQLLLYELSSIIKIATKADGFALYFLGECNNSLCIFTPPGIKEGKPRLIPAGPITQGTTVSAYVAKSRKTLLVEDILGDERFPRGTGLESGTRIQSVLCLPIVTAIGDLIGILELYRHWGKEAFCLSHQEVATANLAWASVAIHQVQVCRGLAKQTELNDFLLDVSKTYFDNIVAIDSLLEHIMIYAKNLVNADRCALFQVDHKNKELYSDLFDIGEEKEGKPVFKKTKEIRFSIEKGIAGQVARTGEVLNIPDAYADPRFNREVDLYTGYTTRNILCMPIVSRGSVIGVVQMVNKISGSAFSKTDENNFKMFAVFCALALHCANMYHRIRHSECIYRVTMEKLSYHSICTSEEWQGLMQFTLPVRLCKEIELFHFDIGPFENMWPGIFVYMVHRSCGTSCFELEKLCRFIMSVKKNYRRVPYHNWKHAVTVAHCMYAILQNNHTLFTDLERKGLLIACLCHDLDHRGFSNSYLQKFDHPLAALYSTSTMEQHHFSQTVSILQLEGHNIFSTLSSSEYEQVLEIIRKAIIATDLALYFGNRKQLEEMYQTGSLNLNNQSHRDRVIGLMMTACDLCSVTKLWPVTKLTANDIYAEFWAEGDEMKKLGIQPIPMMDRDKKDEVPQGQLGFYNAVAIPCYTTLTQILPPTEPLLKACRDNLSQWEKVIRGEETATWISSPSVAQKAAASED
T3 sequence (P07737 whole entry): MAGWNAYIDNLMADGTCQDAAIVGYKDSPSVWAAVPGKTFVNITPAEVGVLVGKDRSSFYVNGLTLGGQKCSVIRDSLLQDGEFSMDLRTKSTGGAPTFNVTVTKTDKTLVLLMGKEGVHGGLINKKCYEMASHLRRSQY

SMILES | fold changes relative to vehicle control ([1]; protein KIAA0664, HeLa) | fold changes relative to vehicle control ([2]; HeLa, protein SOD1) | fold changes relative to vehicle control ([3]; HeLa, protein PFN1) | fold changes relative to vehicle control ([4]; HeLa, captured protein HSPA8) | fold changes relative to vehicle control ([5]; HeLa, captured protein GLB1) | fold changes relative to vehicle control ([6]; HeLa, protein PDK3) | fold changes relative to vehicle control [7, 9] | fold changes relative to vehicle control ([8]; protein PDE10A, HeLa) | fold changes relative to vehicle control ([1]; HeLa, protein KIAA0664) | fold changes relative to vehicle control ([2]; protein SOD1, HeLa) | fold changes relative to vehicle control [3, 10] [fold] | fold changes relative to vehicle control ([4]; protein HSPA8, HeLa) | fold changes relative to vehicle control ([5]; captured protein GLB1, HeLa) | fold changes relative to vehicle control ([6]; captured protein PDK3, HeLa) | fold changes relative to vehicle control ([7]; captured protein MKRN2, HeLa) | fold changes relative to vehicle control ([8]; captured protein PDE10A, HeLa) | also measured
Nc1nc2c(c(=O)[nH]1)N(C=O)C(CNc1ccc(C(=O)N[C@@H](CCC(=O)O)C(=O)O)cc1)CN2 (some centres unmarked) [LEU, leucovorin] | 1.17 | 1.01 | 1.22 | 1.07 | 1.01 | 0.93 | 1.02 | 1.01 | – | – | – | – | – | – | – | – | –
NCCCNc1ccc(C(=O)NC(CCC(=O)O)C(=O)O)cc1 (centres unmarked) [compound 7] | 1.12 | 1.08 | 1.21 | 0.99 | 1.07 | 0.99 | 0.98 | 1 | – | – | – | – | – | – | – | – | –
CCCCCCOc1cccc(Cc2cnc(N)nc2N)c1 [compound 2] | – | – | – | – | – | – | – | – | 1.25 | 2.11 | 2.32 | 1.11 | 0.9 | 0.49 | 0.9 | 0.94 | –
CCCCCCOc1ccc(Cc2cnc(N)nc2N)cc1 [compound 1] | – | – | – | – | – | – | – | – | 1.17 | 1.47 | 1.64 | 0.99 | 0.96 | 1 | 0.9 | 0.96 | –
Nc1nc2cccc(-c3ccccc3)c2n1Cc1ccc(Cl)c(Cl)c1 [compound 3] | – | – | – | – | – | – | – | – | 1.11 | 0.8 | 1.03 | 1 | 0.99 | 0.86 | 0.89 | 0.99 | –
NCCOCCOCC(=O)Nc1nc2ncc(CNc3ccc(C(=O)NC(CCC(=O)O)C(=O)O)cc3)nc2c(=O)[nH]1 (centres unmarked) [compound 6] | 1.01 | 1.44 | 1.47 | 0.98 | 0.99 | 0.87 | 0.92 | 0.78 | – | – | – | – | – | – | – | – | –
Nc1nc2[nH]cc(CCc3ccc(C(=O)N[C@@H](CCC(=O)O)C(=O)O)cc3)c2c(=O)[nH]1 [PTX, pemetrexed] | – | – | – | – | – | – | – | – | – | – | – | – | – | – | – | – | fold changes relative to vehicle control [1]: 1.07; fold changes relative to vehicle control [2]: 1.22; fold changes relative to vehicle control [3]: 1.43; fold changes relative to vehicle control [4]: 0.99; fold changes relative to vehicle control [5]: 0.99; fold changes relative to vehicle control [6]: 0.9; fold changes relative to vehicle control [7]: 0.91; fold changes relative to vehicle control [8]: 0.66
